Measurements taken from US8268809B2, “Kinase inhibitors for preventing or treating pathogen infection and method of use thereof” (priority 2006, dated 2012).
Entries after “also recorded” stand apart in the source; their conditions may differ.

test system: vaccinia virus; type: cell-based
Wherever VACCINIA PLAQUE ASSAY 2 is given: test concentration or dose not given here.

Row | SMILES | Class category of infected monolayers in plaque assay | VACCINIA PLAQUE ASSAY 2 | VACCINIA Plaque Assay | Plaque phenotype due to drug treatment (FIGS. 1, 2, 4)
1 | CCOC(=O)c1ccc(-c2ccc3c(-c4ccc(C(=O)OCC)cc4)n[nH]c3n2)cc1 [APcK-48] | Class III | SMALL PLAQUES | PINPOINT PLAQUES | 
2 | CC(C)c1ccc(Nc2nccn3c(Br)cnc23)cc1 [LG2-60] |  | NO PLAQUES |  | 
3 | CCc1nnc2ccc(-c3cccc(NC(=O)c4ccc(OC)c(OC)c4)c3)nn12 [YYB41] | Class II | SMALL PLAQUES | SMALL PLAQUES | 
4 | Cc1ccc(-n2c(=O)[nH]c3c(C(N)=O)nc(C4CCCCC4)nc32)cc1 [dm-I-203] | Class III | PINPOINTS | SMALL PLAQUES | 
5 | Cn1c(=O)c(-c2c(Cl)cccc2Cl)cc2cnc(Nc3ccc(O)cc3)nc21 [YYA190] |  |  | CPE (MONO- LAYER NOT INFECTED WITH VV; DRUG DE- STROYED MONO- LAYER, THOUGH) | 
6 | COc1ccccc1NS(=O)(=O)c1cccc(Nc2cc(-c3ccc(C(F)(F)F)cc3)ncn2)c1 [Eph2_wbz 107] | Class II | SMALLER PLAQUES THAN WT | SMALLER PLAQUES THAN WT | 
7 | COC(=O)c1ccc(-c2cc(Nc3ccccc3OC)ncn2)cc1OC [Eph2_wbz 211] | Class II | SLIGHTLY SMALLER PLAQUES | SMALL PLAQUES Comets? | 
8 | CCOC(=O)c1ccc(-c2n[nH]c3nc(-c4cc(C)c(O)c(C)c4)ccc23)cc1 [APcK-106] | Class III | PINPOINT PLAQUES | SMALLER PLAQUES THAN WT | 
9 | COc1ccc(OC)c(S(=O)(=O)Nc2cccc(-c3ccc4nnc(-c5cccs5)n4n3)c2)c1 [YYB44] | Class II | SMALL PLAQUES | MEDIUM PLAQUES | 
10 | O=C(c1ccccc1)c1ccc(-c2ccc3c(-c4ccc(Br)c(F)c4)n[nH]c3n2)cc1 [APcK-38] |  | NO PLAQUES |  | 
11 | COc1ccc(-c2n[nH]c3nc(-c4cccc(NC(C)=O)c4)ccc23)cc1 [APcK-101] |  |  |  | damaged monolayer
12 | CCOC(=O)c1ccc(-c2ccc3c(-c4ccc(C(=O)OC)cc4)n[nH]c3n2)cc1 [APcK-32] |  |  | LARGE COMETS | small plaque and large comets; also recorded: small plaques with large comets
13 | COc1ccccc1NS(=O)(=O)c1cccc(NC(=O)CCOc2ccc3c(=O)[nH]ccc3c2)c1 [JAK2F] | Class II | SLIGHTLY SMALLER PLAQUES | SMALL PLAQUES | 
14 | COc1ccc(-c2nc(C(N)=O)c3[nH]c(=O)n(-c4ccc(C)cc4)c3n2)cc1OC [dm-I-196] | Class III | PINPOINTS | SMALL PLAQUES, NO TAILS | small plaques with no comets; also recorded: smaller (pinpoint) plaques with no comets
15 | Cn1c(=O)c(-c2c(Cl)cccc2Cl)cc2cnc(NC3CCN(Cc4ccccc4)CC3)nc21 [YYA188] | Class III | NO PLAQUES | NO PLAQUES | 
16 | COc1ccccc1NS(=O)(=O)c1cccc(Nc2cc(-c3ccc(OC(C)=O)cc3)ncn2)c1 [Eph2_wbz 105] | Class III | NO PLAQUES | SMALLER PLAQUES THAN WT | small plaques with comets
17 | CCOC(=O)c1ccc(-c2n[nH]c3nc(-c4ccc(NC(C)=O)cc4)ccc23)cc1 [APcK-19] |  | SMALL PLAQUES |  | 
18 | CC(=O)Nc1cccc(-c2ccc3c(-c4ccc(Cl)cc4Cl)n[nH]c3n2)c1 [APcK-40] | Class III | PINPOINT PLAQUES | SLIGHTLY SMALLER PLAQUES | 
19 | COc1cc(OC)cc(-c2ccc3c(-c4ccc(F)c(C)c4)n[nH]c3n2)c1 [APcK-109] | Class II | SMALL PLAQUES, LARGE TAILS | SLIGHTLY SMALLER PLAQUES | 
20 | CCN(CC)CCNC(=O)/C=C\C(=O)Nc1ccc2ncnc(Nc3cccc(I)c3)c2c1 [JGAP-11] |  |  | MORE PLAQUES THAN WT | 
21 | COc1cccc(-c2cnc3c(Nc4ccccc4)nccn23)c1 [LG2-85] | Class III | NO PLAQUES | PINPOINT PLAQUES | 

Row | SMILES | Class category of infected monolayers in plaque assay | VACCINIA PLAQUE ASSAY 2 | VACCINIA Plaque Assay | Plaque phenotype due to drug treatment (FIGS. 1, 2, 4)
22 | COc1ccccc1Nc1cc(-c2ccc(NC(C)=O)cc2)ncn1 [Eph2_wbz 206] | Class II | SMALL PLAQUES | SMALL PLAQUES, COMETS? | small plaques with comets
23 | COc1cc(-c2cnc3c(Nc4ccccc4)nccn23)ccc1O [LG2-62] | Class II | SMALL PLAQUES | SMALLER PLAQUES THAN WT | 
24 | CN1CCOc2cc(/C=C3\SC(=O)NC3=O)ccc21 [AS-605091, reference compound] | Class III | PINPOINT PLAQUES | SMALL PLAQUES | 
25 | COc1cc(OC)cc(-c2cnc3c(NCC4CC4)nccn23)c1 [LG2-102] | Class III | NO PLAQUES | NO PLAQUES | 
26 | CCOC(=O)c1ccc(-c2ccc3c(-c4ccc(Cl)c(F)c4)n[nH]c3n2)cc1 [APcK-49] |  | SMALL PLAQUES |  | 
27 | COc1cc(OC)cc(-c2ccc3c(-c4ccc(Cl)c(F)c4)n[nH]c3n2)c1 [APcK-111] | Class III | PINPOINT PLAQUES | PINPOINT PLAQUES | pinpoint plaque formations; also recorded: pinpoint plaques
28 | O=C(c1ccccc1)c1ccc(-c2ccc3c(-c4ccc(Br)cc4F)n[nH]c3n2)cc1 [APcK-39] |  | NO PLAQUES |  | 
29 | COc1ccccc1Nc1cc(-c2ccc3[nH]ccc3c2)ncn1 [Eph2_wbz 216] | Class III | NO PLAQUES | SLIGHTLY SMALLER PLAQUES | 
30 | O=C1NC(=O)/C(=C/c2ccc3c(c2)OC(F)(F)O3)S1 [AS-604850, reference compound] | Class III | NO PLAQUES | NO PLAQUES | 
31 | CCOC(=O)c1ccc(-c2n[nH]c3nc(-c4cc(OC)cc(OC)c4)ccc23)cc1 [APcK-108] | Class III | SMALL PLAQUES | PINPOINT PLAQUES | pinpoint plaque formations; also recorded: pinpoint plaques
32 | COc1cc(C(=O)Nc2cccc(-c3ccc4nnc(-c5ccccc5)n4n3)c2)cc(OC)c1OC [YYB21] |  |  |  | damaged monolayer
33 | Cc1ccc(NC(=O)c2ccc(CN3CCN(CCF)CC3)cc2)cc1Nc1nccc(-c2cccnc2)n1 [STLF2] | Class III | NO PLAQUES | PIN POINT PLAQUES | 
34 | Cn1c(=O)c(-c2c(Cl)cccc2Cl)cc2cnc(Nc3cccc(N)n3)nc21 [YYA104] | Class III | NO PLAQUES | PINPOINT PLAQUES | 
35 | CCOC(=O)c1ccc(-c2ccc3c(-c4ccc(C#N)cc4)n[nH]c3n2)cc1 [APcK-55] |  | NO PLAQUES |  | 
36 | COc1cc(OC)cc(-c2ccc3c(-c4ccc(F)cc4)n[nH]c3n2)c1 [APcK-110] | Class II | SMALL PLAQUES | SMALL PLAQUES, SEE LOTS OF SATELLITE PLAQUES | 
37 | O=C1NC(=O)/C(=C/c2ccc3nccnc3c2)S1 [AS-604240, reference compound] | Class III | PINPOINT PLAQUES | PINPOINT PLAQUES | 
38 | Cc1ccc(-n2c(=O)[nH]c3c(C(N)=O)nc(-c4ccc(-c5cccs5)s4)nc32)cc1 [dm-I-184] |  | SLIGHTLY SMALLER PLAQUES |  | 
39 | CC(=O)Nc1cccc(-c2ccc3c(-c4ccc(Br)cc4F)n[nH]c3n2)c1 [APcK-41] |  | NO PLAQUES |  | 
40 | COc1ccccc1Nc1cc(-c2ccc(NC(=O)CCC(=O)O)cc2)ncn1 [Eph2_wbz 217] |  |  | SLIGHTLY SMALLER PLAQUES | 
41 | CCOC(=O)c1ccc(-c2n[nH]c3nc(-c4ccc5cc[nH]c5c4)ccc23)cc1 [APcK-58] |  | NO PLAQUES |  | 
